Assay type in all cases: cell-based, rat
One series concerns IL-1β. In words: IL-1β transcripts in LPS-stimulated microglial cells (real-time PCR). Conditions: 20 μg/mL; LPS 4.5 ng/mL, 5 h. On the procedure: (§1) RNA was extracted by the RNeasy Plus Mini Kit (Qiagen, Hilden, Germany) according to the manufacturer's instructions. Genomic DNA was removed from the RNA samples by using 50 units of RNase-free DNaseI at 37° C. for 1 h. RNA ([…]) was converted to cDNA using the Thermo Scientific Verso cDNA kit (Thermo Fisher Scientific Inc) following the manufacturer's protocol. The cDNA was used for quantitative real-time PCR amplification with TaqMan chemistry (Applied Biosystems) using Rat MMP9, TNFα, IL1β, iNOS, COX2 pre-designed TaqMan Gene Expression Assay from Applied Biosystems (Rn00579162_m1, Rn00562055_m1, Rn00580432_m1, Rn00561646_m1, Rn01483828_m1, respectively). […] All results from three technical replicates were normalized relative to α-Tubulin (Rn01532518.g1) and GAPDH (Rn01775763.g1), respectively, and expressed as relative expression ratios calculated (relative quantity, RQ) using the comparative method and based on the data that were created by the ABI PRISM 7700 Sequence Detection System (using version 1.6 software).
(§2) Procedure 23. Measurement of IL-1Beta, TNFalpha, iNOS, COX-2 and MMP-9 Transcripts in LPS-Activated Microglial Cells by Quantitative Real-Time PCR Analysis. • 1. […]
(§3) Microglial cells were treated with 20 μg/mL of achillolide A, followed by stimulation with LPS (4.5 ng/mL). […] The results are expressed as percentages relative to LPS-stimulated cells. […]
A general note: Quantitative PCR measures a nucleic acid by following its amplification.

A further series deals with microglial cells. The series is described as follows: Viability of microglial cells in MMP-9 experiments (crystal violet). The note with it: 24 h. On the procedure:
[formula] In MMP-9 experiments and in the cellular antioxidant activity (CAA) assays, cell viability was determined by a modification of the crystal violet assay. Microglial cells were treated with the indicated concentrations of achillolide A, followed by stimulation with LPS (4.5 ng/mL). Conditioned media were collected 24 h later and tested for MMP-9 activity by gel zymography as shown in FIG. 23 A. The zymogram represents two independent experiments. The levels of MMP-9 transcripts were measured by quantitative real-time PCR. The results from three technical replicates were normalized to β-actin and are expressed as relative quantity of MMP-9 transcripts in FIG. 23 B. The results are means±SD of one representative experiment out of three experiments. Cell viability was determined 24 h later by the crystal violet assay. Values represent the means±SEM (n=4 for each treatment).

Another series concerns COX-2. The series is described as follows: COX-2 transcripts in LPS-stimulated microglial cells (real-time PCR). Conditions: 20 μg/mL; LPS 4.5 ng/mL, 5 h. The method, then: as §1, §2, §3
The subject of another series is IL-6. The series is described as follows: IL-6 secretion from LPS-stimulated microglial cells (ELISA). The note with it: LPS 100 ng/mL, 24 h. On the procedure: 2. Plate microglial cells (3.5×10^4 cells/well) on a 24-well tissue culture plate, in DMEM containing 10% FBS, 2 mM glutamine, 100 U/ml penicillin and 100 micrograms/mL streptomycin;
Microglial cells were treated with different concentrations of TTF, followed by stimulation with LPS (100 ng/mL). After 24 h, conditioned media were collected and tested for cytokine levels by ELISA. Cell viability was determined using the crystal violet assay (FIG. 9C). Values represent the means±SEM (n=4 for each treatment).
On the technique in general: An ELISA detects its analyte on a solid surface through an enzyme-linked reagent.

SMILES strings stand for the structures.

For the compound `C=C1CCC2=C(CO)C(=O)O[C@H]2/C=C(\C)[C@H](OC(C)=O)CC1=O` [achillolide A], in the series with IL-1β, the “effect on LPS-induced IL-1β transcript levels” value is “significantly inhibited”. Besides, in the series with microglial cells, the “toxicity in MMP-9 experiments” value is “no toxicity was observed”. In addition, the “effect on LPS-induced COX-2 transcript levels” value in the series on COX-2 is given as “significantly inhibited”.
As for `COc1cc(-c2oc3cc(OC)c(OC)c(O)c3c(=O)c2O)ccc1O` [TTF, 3,5,4′-trihydroxy-6,7,3′-trimethoxyflavone], in the series with IL-6, the “effect on LPS-elicited IL-6 secretion” value was “markedly inhibited”.
